Experimental data reported in ChEMBL document CHEMBL1221304, “Proline isosteres in a series of 2,4-disubstituted pyrrolo[1,2-f][1,2,4]triazine inhibitors of IGF-1R kinase and IR kinase” (Bioorg Med Chem Lett, 2010).

What was measured:
[1] = target: T1, Insulin-like growth factor 1 receptor (Homo sapiens, UniProt P08069); assay: Inhibition of IGF1R
[2] = target: T1, Insulin-like growth factor 1 receptor; assay: Inhibition of IGF1R in IGF1R-SAL cells; format: cell-based
[3] = Permeability by PAMPA assay; format: ADME; conditions: for Papp: read-out: permeability

T1 sequence (P08069 31-736 limits assumed): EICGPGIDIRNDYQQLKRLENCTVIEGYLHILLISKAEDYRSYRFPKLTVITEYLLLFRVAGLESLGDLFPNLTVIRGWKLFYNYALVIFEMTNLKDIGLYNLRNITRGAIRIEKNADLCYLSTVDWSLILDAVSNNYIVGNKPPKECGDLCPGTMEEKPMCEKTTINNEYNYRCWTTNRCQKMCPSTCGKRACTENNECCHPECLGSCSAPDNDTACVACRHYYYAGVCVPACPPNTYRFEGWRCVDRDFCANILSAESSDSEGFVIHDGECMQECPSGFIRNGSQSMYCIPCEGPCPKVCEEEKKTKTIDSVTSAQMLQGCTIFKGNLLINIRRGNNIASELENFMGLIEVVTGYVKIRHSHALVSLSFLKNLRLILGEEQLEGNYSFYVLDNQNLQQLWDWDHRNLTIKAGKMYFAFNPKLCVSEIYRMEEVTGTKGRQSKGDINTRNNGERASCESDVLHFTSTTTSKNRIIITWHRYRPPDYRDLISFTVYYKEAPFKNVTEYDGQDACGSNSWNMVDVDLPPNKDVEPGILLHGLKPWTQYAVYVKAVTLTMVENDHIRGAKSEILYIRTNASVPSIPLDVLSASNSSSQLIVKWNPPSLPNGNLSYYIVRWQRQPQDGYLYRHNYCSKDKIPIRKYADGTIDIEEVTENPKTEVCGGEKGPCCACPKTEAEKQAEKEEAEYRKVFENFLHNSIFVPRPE
T1 sequence (P08069 741-1367 limits assumed): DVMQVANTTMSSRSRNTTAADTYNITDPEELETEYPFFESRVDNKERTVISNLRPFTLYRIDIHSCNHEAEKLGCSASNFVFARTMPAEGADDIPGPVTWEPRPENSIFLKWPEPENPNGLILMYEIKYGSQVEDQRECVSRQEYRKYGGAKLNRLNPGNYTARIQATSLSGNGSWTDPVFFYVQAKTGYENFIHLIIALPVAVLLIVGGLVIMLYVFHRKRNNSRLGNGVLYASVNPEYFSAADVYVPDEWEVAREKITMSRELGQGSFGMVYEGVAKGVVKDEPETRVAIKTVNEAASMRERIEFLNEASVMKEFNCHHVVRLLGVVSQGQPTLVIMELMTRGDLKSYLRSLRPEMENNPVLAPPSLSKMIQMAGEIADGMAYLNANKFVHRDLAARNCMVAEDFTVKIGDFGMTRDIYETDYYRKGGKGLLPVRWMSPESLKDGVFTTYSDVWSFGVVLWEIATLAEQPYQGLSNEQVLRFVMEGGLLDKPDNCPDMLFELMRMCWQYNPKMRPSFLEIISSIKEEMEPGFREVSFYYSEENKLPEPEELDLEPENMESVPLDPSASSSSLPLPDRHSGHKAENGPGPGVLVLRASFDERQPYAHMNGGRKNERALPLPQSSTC

| SMILES | IC50 [1] | IC50 [2] | Papp [3] | permeability [3] |
| --- | --- | --- | --- | --- |
| O=C(Nc1ccc(F)nc1)[C@@H]1CCCN1c1nc(Nc2cc(C3CC3)[nH]n2)c2cccn2n1 | 0.0027 µM | 0.001 µM | 77 ×10⁻⁶ cm/s | – |
| O=C(c1ccc(F)nc1)N1CCC[C@H]1c1nc(Nc2cc(C3CC3)[nH]n2)c2cccn2n1 | – | 0.162 µM | 72.1 ×10⁻⁶ cm/s | – |
| O=C(c1ccc(F)nc1)N1CCC[C@@H]1c1nc(Nc2cc(C3CC3)[nH]n2)c2cccn2n1 | 8.4 µM | – | 93.5 ×10⁻⁶ cm/s | – |
| O=C1CC[C@@H](c2nc(Nc3cc(C4CC4)[nH]n3)c3cccn3n2)N1C(=O)c1ccc(F)nc1 | 0.011 µM | 0.508 µM | 60 ×10⁻⁶ cm/s | – |
| O=C(Nc1ccc(F)nc1)C1=C(c2nc(Nc3cc(C4CC4)[nH]n3)c3cccn3n2)CCC1 | 0.032 µM | 0.237 µM | 82.2 ×10⁻⁶ cm/s | – |
| O=C(NCc1nc(Nc2cc(C3CC3)n[nH]2)c2cccn2n1)c1ccc(F)nc1 | – | 0.04 µM | 52.5 ×10⁻⁶ cm/s | – |
| O=C(Nc1ccc(F)nc1)[C@@H]1CCC[C@H]1c1nc(Nc2cc(C3CC3)n[nH]2)c2cccn2n1 (stereo in doubt; (+)-25) | 0.0097 µM | 0.206 µM | 50.9 ×10⁻⁶ cm/s | – |
| O=C(Nc1ccc(F)nc1)[C@@H]1CCC[C@H]1c1nc(Nc2cc(C3CC3)n[nH]2)c2cccn2n1 (stereo in doubt; (-)-25) | 0.19 µM | 0.389 µM | – | 85.4 ×10⁻⁶ cm/s |
| C[C@@]1(C(=O)Nc2ccc(F)nc2)CCCN1c1nc(Nc2cc(C3CC3)n[nH]2)c2cccn2n1 [BMS-754807] | – | – | 63.4 ×10⁻⁶ cm/s | – |
